Key:
[1] = tested on: human breast tumour cell line, MCF7; test: Proliferation of MCF7 cells in response to 5% FCS or EGF; format: cell-based; conditions: Homo sapiens, MCF7; proliferation in response to 5% FCS; pIC50 of 4.00 = inactive
Procedure: (§1) The effects of 4NO were evaluated in a number of non-smooth muscle cell types including the type II airway epithelial cell line, A549 (ATCC accession number ATCC CCL-185 Lung carcinoma human) (FIG. 2); the human breast tumour cell line, MCF7, (ATTC accession number ATCC HTB-22 breast adenocarcinoma, human) which expresses the estrogen receptor (FIG. 3); and in bovine aortic endothelial cells (BAEC) (FIG. 4).
(§2) The effects of test compounds were examined on proliferation of A549 cells in response to 5% fetal calf serum (FCS). Analogues were pre-incubated with A549 cells for 30 min before the addition of FCS. The incubation continued for 48 h before cell enumeration. Data are expressed as a percentage of the cell number in vehicle treated wells and are presented as the mean and standard error of the mean. Similarly the effects of 2MEO and 4NO on proliferation of MCF7 in response to 5% FCS or epidermal growth factor (EGF, 300 pM) were examined, as were the effects of 2MEO and 4NO on proliferation of BAEC in response to 5% FCS. The incubation parameters were the same as described above and results are presented as the mean and standard error of the mean.
(§3) This assay was also used to evaluate the ability of other compounds to inhibit the proliferation of non-smooth muscle cells MCF7 and A549 (described above) in response to 5% FCS. The results of this assay are presented in Table 4 (columns G and H respectively). The potency of the compounds was considerably less in inhibiting proliferation of these cell lines than it was for HASM. These observations support the contention that there are cell type-specific targets for the actions of these compounds. Such assays may also be adopted to examine the effect of other disclosed compounds on these cells or on other non-smooth muscle cells of interest.

Pulmonary fibroblasts = test: bFGF-induced proliferation of human pulmonary fibroblasts; format: cell-based; conditions: inhibition of bFGF (300 pM)-induced proliferation, mean and SEM, minimum 3 experiments; 1 μM; * not defined
Procedure: Samples of parenchyma from human lung transplant recipients were dissected away from the pleura, chopped into fragments of less than 1 mm^2 and allowed to adhere to plastic culture dishes in a minimal volume of DMEM containing serum (10%) and antibiotics (as used for HASM culture). After the tissue fragments had adhered to the base of the dish additional medium was added. Medium was changed twice weekly until an explant culture formed, at which time the tissue fragments were removed and the cells were passaged in a 1:3 split ratio by exposure to trypsin weekly to produce pulmonary fibroblast cultures.
Pulmonary fibroblasts were cultured in DMEM, serum-deprived for 24 h, in the presence or absence of the test compounds, and then stimulated with 300 pM bFGF for 48 h before harvest and counting of viable cells. An increase pulmonary fibroblast cell number was prevented by 4NOM over the concentration range of 1 to 1000 nM.
A range of the disclosed compounds was subsequently examined using the above assay system, and the results are summarized in Column E of Table 4. […] The proliferation of parenchymal fibroblasts is important in the development of pulmonary fibrosis.

[2] = tested on: Human airway smooth muscle (HASM) cells; test: Thrombin-induced proliferation of human airway smooth muscle (HASM) cells, cell number after 48 h; format: cell-based; conditions: for IC50: Homo sapiens, negative log of the concentration that reduces the thrombin-induced proliferative response by 50%, pIC50 of 4.00 = inactive, read-out: HASM-Thr pIC50 (converted); for HASM- Thr pIC25 / HASM- Thr pIC75: two site model, thrombin-induced proliferation; for HASM- Thr pIC25: first phase (inhibition up to 50%); for HASM- Thr pIC75: second phase (inhibition up to 100%)
How it was run: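 Primary human bronchial smooth muscle cells seeded at 1.5×10^4 cells/cm², serum-starved 24 h, pre-incubated with compound 30 min, then stimulated 48 h with thrombin 0.3 U/ml. Cells counted by haemocytometer with trypan blue; pIC50 as negative log concentration halving proliferative response.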

[3] = tested on: GM-CSF production by Human Airway Smooth Muscle Cells; test: Interleukin-1α-mediated GM-CSF production by HASM cells (ELISA); format: cell-based; conditions: inhibition of interleukin-1α (1 ng/ml)-mediated GM-CSF production; concentration not given; * not defined
[4] = tested on: type II airway epithelial cell line, A549; test: Proliferation of A549 cells in response to 5% FCS; format: cell-based, human; conditions: Homo sapiens, A549; proliferation in response to 5% FCS; pIC50 of 4.00 = inactive; read-out: A549 PIC50 (converted)
Procedure: as §1, §2, §3

Estrogen Receptor (ER) = biological target: T1, Estrogen Receptor (ER) (Rattus norvegicus, UniProt P06211); test: Estrogen receptor binding assay, 3H-estradiol displacement from rat uterine cytosol; conditions: 3H-estradiol displacement, cytosolic preparations of rat uterus; pIC50 of 4.00 = inactive; read-out: ER-RLB pIC50 (converted)
T1 construct: using rat uterine cytosol as a source of ER; from tissue; host or cells: rat uterus, cytosol fraction (30000 x g supernatant)
T1 sequence (P06211 1-600): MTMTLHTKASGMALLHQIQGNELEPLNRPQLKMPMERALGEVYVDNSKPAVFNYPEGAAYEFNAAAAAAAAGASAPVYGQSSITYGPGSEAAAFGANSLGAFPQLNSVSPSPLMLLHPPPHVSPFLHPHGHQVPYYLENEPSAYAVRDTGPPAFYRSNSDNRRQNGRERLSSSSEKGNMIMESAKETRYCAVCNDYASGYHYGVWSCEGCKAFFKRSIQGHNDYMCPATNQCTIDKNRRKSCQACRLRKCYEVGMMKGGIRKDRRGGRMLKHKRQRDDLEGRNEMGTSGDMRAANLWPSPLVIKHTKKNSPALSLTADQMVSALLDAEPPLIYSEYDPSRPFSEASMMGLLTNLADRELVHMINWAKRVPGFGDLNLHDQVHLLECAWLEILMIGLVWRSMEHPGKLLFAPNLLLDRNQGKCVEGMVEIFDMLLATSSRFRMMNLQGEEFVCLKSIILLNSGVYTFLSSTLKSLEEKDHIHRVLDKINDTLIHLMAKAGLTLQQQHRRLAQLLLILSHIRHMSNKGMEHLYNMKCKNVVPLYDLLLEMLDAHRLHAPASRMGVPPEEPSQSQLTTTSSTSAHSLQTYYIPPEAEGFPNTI
How it was run: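 Cytosol from Brown Norway rat uteri, homogenised in 10 mM Tris pH 7.4 with EDTA, glycerol and PMSF, spun at 30000×g, diluted to about 1 mg/ml protein.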

CO/N=C1\CC[C@H]2[C@@H]3C/C(=N\OCc4cc(F)cc(F)c4)c4cc(O)c(OC)cc4[C@H]3CC[C@]12C [CP-DM-4-74, 6-(3,5difluorobenzyloxy)imino-2-methoxyestrone-17-methyloxime]
IC50 [1]: 10 µM
pFib - bFGF (Pulmonary fibroblasts): 5 ± 9
IC50 [2]: 1.15 µM
HASM- Thr pIC25 [2]: 6.59
HASM- Thr pIC75 [2]: 5.34
HASM - GM-CSF [3]: 11 ± 8

COc1ccc(CO/N=C2\C[C@@H]3[C@H](CC[C@]4(C)/C(=N/O)CC[C@@H]34)c3cc(OC)c(O)cc32)cc1 [CP-DM-4-6, 2-methoxy-6-(4-methoxybenzyloxy)-iminoestrone-17-oxime]
IC50 [1]: 2.29 µM
IC50 [4]: 7.76 µM
IC50 [2]: 0.117 µM
HASM- Thr pIC25 [2]: 9.57
HASM- Thr pIC75 [2]: 4.94
IC50 (Estrogen Receptor (ER)): 45.7 µM
HASM - GM-CSF [3]: 28 ± 10*

— patent publication US20070275935A1, “Estratriene Derivatives” (priority 2003, published 2007)
